Data taken from ChEMBL document CHEMBL6182866, “Design, synthesis, molecular docking and ADME of novel phenylalanine derivatives as mushroom tyrosinase inhibitors” (Bioorg Med Chem Lett, 2025).
The source made the active and inactive calls. The rule behind the calls is not given here.

Assays:
Mushroom tyrosinase = Mushroom tyrosinase (Agaricus bisporus, UniProt O42713+Q00024+C7FF04+C7FF05); experiment: Inhibition of mushroom tyrosinase using L-DOPA as substrate assessed as reduction in diphenolase activity; format: protein assay
[1] = molecular target: T1, Tyrosinase (Homo sapiens) (UniProt P14679); experiment: Inhibition of human TYR using L-DOPA as substrate assessed as reduction in diphenolase activity by absorbance based assay
T1 sequence (whole entry): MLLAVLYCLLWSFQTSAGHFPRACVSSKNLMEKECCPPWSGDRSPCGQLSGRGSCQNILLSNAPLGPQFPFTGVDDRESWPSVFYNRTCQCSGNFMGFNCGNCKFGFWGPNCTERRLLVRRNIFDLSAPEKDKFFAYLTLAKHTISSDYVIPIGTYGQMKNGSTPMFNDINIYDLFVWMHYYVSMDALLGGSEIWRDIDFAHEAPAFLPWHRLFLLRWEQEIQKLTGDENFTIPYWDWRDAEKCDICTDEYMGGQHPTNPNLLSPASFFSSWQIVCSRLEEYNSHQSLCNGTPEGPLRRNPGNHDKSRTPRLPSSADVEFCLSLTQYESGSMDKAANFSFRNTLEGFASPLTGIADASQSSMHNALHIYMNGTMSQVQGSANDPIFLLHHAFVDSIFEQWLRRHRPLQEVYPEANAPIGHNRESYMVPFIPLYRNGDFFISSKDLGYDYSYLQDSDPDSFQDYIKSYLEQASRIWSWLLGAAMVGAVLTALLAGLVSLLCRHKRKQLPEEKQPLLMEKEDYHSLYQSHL

[2] = molecular target: T2, Mushroom tyrosinase (Agaricus bisporus) (UniProt O42713+Q00024+C7FF04+C7FF05); experiment: Reversible inhibition of mushroom tyrosinase using L-DOPA as substrate up to 10 uM; format: protein assay
[3] = molecular target: T2, Mushroom tyrosinase (Agaricus bisporus); experiment: Competitive inhibition of mushroom tyrosinase using L-DOPA as substrate assessed as increase in Km with constant Vmax up to 10 uM by Lineweaver-Burk plot analysis; format: protein assay

Row | Compound | IC50 (Mushroom tyrosinase) [µM] | other results
1 | O=C(O)C(Cc1ccccc1)NCc1ccc(Cl)cc1Cl (configuration not stated) | > 100 | –
2 | O=C(OCc1ccc(F)cc1)C(Cc1ccccc1)NCc1ccc([N+](=O)[O-])cc1 (configuration not stated) | 11.77 | –
3 | O=C(OCc1ccc([N+](=O)[O-])cc1)C(Cc1ccccc1)NCc1ccc(Cl)c([N+](=O)[O-])c1 (configuration not stated) | 4.86 | inhibition [1]: Dose-dependent-effect; inhibition [2]: Active; inhibition [3]: Active
4 | O=C(OCc1cc(=O)c(O)co1)C(Cc1ccccc1)NCc1ccccc1Cl (configuration not stated) | 20.64 | –
5 | O=C(O)C(Cc1ccccc1)NCc1ccc(Cl)c([N+](=O)[O-])c1 (configuration not stated) | > 100 | –
6 | O=C(OCc1ccc([N+](=O)[O-])cc1)C(Cc1ccccc1)NCc1ccccc1Cl (configuration not stated) | 16.99 | –
7 | O=C(O)C(Cc1ccccc1)NCc1ccccc1Cl (configuration not stated) | > 100 | –
8 | O=C(OCc1ccc(F)cc1)C(Cc1ccccc1)NCc1ccc(Cl)c([N+](=O)[O-])c1 (configuration not stated) | 6.11 | –
9 | O=C(OCc1ccc([N+](=O)[O-])cc1)C(Cc1ccccc1)NCc1ccc(Cl)cc1Cl (configuration not stated) | 6.78 | –
10 | O=C(OCc1ccc(F)cc1)C(Cc1ccccc1)NCc1ccc(Cl)cc1Cl (configuration not stated) | 8.33 | –
11 | O=C(OCc1cc(=O)c(O)co1)C(Cc1ccccc1)NCc1ccc(Br)cc1 (configuration not stated) | 15.26 | –
12 | O=C(O)C(Cc1ccccc1)NCc1ccc(Br)cc1 (configuration not stated) | 31.05 | –
13 | O=C(OCc1ccc(F)cc1)C(Cc1ccccc1)NCc1ccc(Br)cc1 (configuration not stated) | 16.07 | –
14 | O=C(OCc1cc(=O)c(O)co1)C(Cc1ccccc1)NCc1ccc(Cl)cc1Cl (configuration not stated) | 10.35 | inhibition [2]: Active; inhibition [3]: Active
15 | O=C(OCc1ccc([N+](=O)[O-])cc1)C(Cc1ccccc1)NCc1ccc(Br)cc1 (configuration not stated) | 11.95 | –
16 | O=C(OCc1cc(=O)c(O)co1)C(Cc1ccccc1)NCc1ccc(Cl)c([N+](=O)[O-])c1 (configuration not stated) | 11.65 | –
17 | CC(C)C(=O)Nc1nc(-c2ccc(O)cc2O)cs1 | 48.12 | –
18 | O=c1cc(CCl)occ1O | 33.05 | –
19 | O=C(OCc1ccc([N+](=O)[O-])cc1)C(Cc1ccccc1)NCc1ccc([N+](=O)[O-])cc1 (configuration not stated) | 10.58 | –
20 | O=C(O)C(Cc1ccccc1)NCc1ccc([N+](=O)[O-])cc1 (configuration not stated) | 42.4 | –
21 | O=C(OCc1cc(=O)c(O)co1)C(Cc1ccccc1)NCc1ccc([N+](=O)[O-])cc1 (configuration not stated) | 13.43 | –
22 | O=C(OCc1ccc(F)cc1)C(Cc1ccccc1)NCc1ccccc1Cl (configuration not stated) | 18.2 | –
